Laboratory results taken from patent publication US12325697B2 (Nimbus Clio, Inc., priority 2021, dated 2025).

Columns and labels:
[1] = biological target: Recombinant human c-Cbl (aa 47-435) (Homo sapiens (Human), UniProt P22681); test: c-Cbl Biochemical Assay (TR-FRET)
Protocol: Recombinant human c-Cbl (aa 47-435) was expressed in E. coli, purified and biotinylated in vitro. The protein was diluted to 12 nM in freshly prepared assay buffer consisting of 50 mM HEPES, pH 7.0, 100 mM NaCl, 5 mM MgCl2, 0.01% Triton-X 100, 0.01% BSA and 1 mM DTT. Recombinant human Src (aa 254-536)-[…]-Zap-70 (aa 281-297) fusion protein was expressed in E. coli and purified. Protein was diluted in assay buffer to 5-20 nM and ATP was added to 1 mM. Recombinant human UBE2D2([…]) was expressed in E. coli, purified and ubiquitinated and Bodipy labelled in vitro. Protein was diluted to 200 nM in assay buffer without MgCl2 (or Cisbio PPI buffer). Streptavidin-Terbium was added to 2 nM and EDTA to 10 mM, to provide a binding assay mix. Compounds were dissolved in DMSO and diluted to prepare a ten-point half log dilution series. 100 nl of each compound concentration was dispensed in duplicate in a 384 well black assay plate using acoustic dispensing. Wells for maximum signal controls received 100 nl of DMSO only and wells for minimum controls received 100 nl of a reference inhibitor compound at a final assay concentration of […] to produce 100% inhibition. 5 μl of diluted c-cbl enzyme was added to all wells of the assay plate and incubated at RT for 30 min. The enzyme assay was initiated by addition of 5 μl of Src-Zap/ATP mix to all wells, and the plate incubated at RT for 60-90 min. The enzyme reaction was terminated and the binding reaction was initiated by adding 10 μl of binding assay mix to all wells and incubating the plate at RT for 60 min prior to assay read. Final assay conditions consisted of 6 nM c-cbl, 2.5-10 nM Src-Zap70, 0.5 mM ATP, 1% (v/v) DMSO (enzyme reaction) and 100 nM UBE2D2([…])-Ub-FL-BODIPY, 5 mM EDTA, 1 nM Streptavidin-Tb (binding reaction). The HTRF assay signal was measured at 520 nm on an Envision plate reader, with reference signal at 485 or 620 nm. Data was normalized using maximum and minimum assay controls: % Inhibition=100-(100*((maximum control)-unknown)/(maximum control-minimum control)). A 4-parameter dose-response equation was used to fit the normalized dose-response data and derive an IC50 for test compounds.

[2] = biological target: Recombinant human Cbl-b (aa 36-427) (Homo sapiens (Human), UniProt Q13191); test: Cbl-b Biochemical Assay (TR-FRET); details: read-out: TR-FRET hCbl-b IC50
Sequence of Recombinant human Cbl-b (aa 36-427) (Q13191 36-427): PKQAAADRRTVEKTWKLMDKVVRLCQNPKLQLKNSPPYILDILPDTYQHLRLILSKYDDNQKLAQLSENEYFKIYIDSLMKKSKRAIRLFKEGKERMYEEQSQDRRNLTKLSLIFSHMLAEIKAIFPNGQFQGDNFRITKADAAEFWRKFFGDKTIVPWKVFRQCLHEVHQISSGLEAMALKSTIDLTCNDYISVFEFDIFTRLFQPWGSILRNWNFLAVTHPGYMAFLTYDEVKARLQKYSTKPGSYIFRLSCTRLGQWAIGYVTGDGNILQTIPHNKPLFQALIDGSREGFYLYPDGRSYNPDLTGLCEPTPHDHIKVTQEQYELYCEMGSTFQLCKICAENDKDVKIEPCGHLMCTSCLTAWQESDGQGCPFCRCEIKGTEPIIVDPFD
Method in brief: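 IC50 from 4-parameter fit of % inhibition (DMSO max, reference-inhibitor min), duplicate ten-point series. Compound preincubated with 6 nM Cbl-b, then Src-Zap70 (1-2.5 nM)/0.5 mM ATP reaction 60 min RT; EDTA quench with labelled UBE2D2-Ub and streptavidin-terbium, 60 min, HTRF at 520 nm.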

Sequence of Recombinant human c-Cbl (aa 47-435) (P22681 47-435): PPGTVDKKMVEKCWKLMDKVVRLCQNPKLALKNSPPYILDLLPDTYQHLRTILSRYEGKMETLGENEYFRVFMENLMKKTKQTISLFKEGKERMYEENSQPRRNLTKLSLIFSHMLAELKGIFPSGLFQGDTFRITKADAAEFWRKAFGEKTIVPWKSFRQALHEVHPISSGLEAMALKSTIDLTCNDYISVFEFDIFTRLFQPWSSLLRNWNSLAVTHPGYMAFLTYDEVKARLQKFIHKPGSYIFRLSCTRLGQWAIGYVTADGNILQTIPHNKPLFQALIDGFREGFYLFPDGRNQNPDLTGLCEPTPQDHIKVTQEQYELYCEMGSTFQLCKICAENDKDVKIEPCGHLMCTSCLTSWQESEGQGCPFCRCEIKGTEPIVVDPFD

Row | SMILES | IC50 [1] [nM] | IC50 [2] [nM]
1 | CN(C)C(=O)CN(Cc1ccc2c(c1)C(=O)N(c1cc(-c3ccc(C#N)cc3-c3nncn3C)cc(C3CC3)n1)C2)CC1COC1 [AON-2, 2-{[(2-{4-[4-Cyano-2-(4-methyl-1,2,4-triazol-3-yl)phenyl]-6-cyclopropylpyridin-2-yl}-3-oxo-1H-isoindol-5-yl)methyl](oxetan-3-ylmethyl)amino}-N,N-dimethylacetamide] | ≤ 200 | ≤ 200
2 | Cn1cnnc1-c1cc(C#N)ccc1-c1cc(C2CC2)cc(N2Cc3ccc(CNCC4CC4)cc3C2=O)c1 [AJR-1, 3′-Cyclopropyl-5′-(6-{[(cyclopropylmethyl)amino]methyl}-1-oxo-3H-isoindol-2-yl)-2-(4-methyl-1,2,4-triazol-3-yl)-[1,1′-biphenyl]-4-carbonitrile] | ≤ 200 | ≤ 200
3 | CC(=O)c1ccc2c(c1)C(=O)N(c1cc(-c3ccc(C#N)cc3-c3nncn3C)cc(C3CC3)n1)C2 [AJH-3, 4-(2-(6-Acetyl-1-oxoisoindolin-2-yl)-6-cyclopropylpyridin-4-yl)-3-(4-methyl-4H-1,2,4-triazol-3-yl)benzonitrile] | ≤ 200 | ≤ 200
4 | Cn1cnnc1-c1cc(C#N)ccc1-c1cc(C2CC2)nc(N2Cc3ccc(CNC4CCOCC4)cc3C2=O)c1 [AMO-2, 4-(2-Cyclopropyl-6-{6-[(oxan-4-ylamino)methyl]-1-oxo-3H-isoindol-2-yl}pyridin-4-yl)-3-(4-methyl-1,2,4-triazol-3-yl)benzonitrile] | ≤ 200 | ≤ 200
5 | Cn1cnnc1-c1cc(C#N)ccc1-c1cc(C2CC2)nc(N2Cc3ccc([C@@H]4COC[C@H](C5CCC5)N4)cc3C2=O)c1 (stereo in doubt) [AOQ-1, rel-4-(2-{6-[(3R,5S)-5-Cyclobutylmorpholin-3-yl]-1-oxo-3H-isoindol-2-yl}-6-cyclopropylpyridin-4-yl)-3-(4-methyl-1,2,4-triazol-3-yl)benzonitrile] | ≤ 200 | ≤ 200
6 | CCOc1cc(-c2ccc(F)cc2-c2nncn2C)cc(N2Cc3ccc(CN(C)CC4(O)CCC4)cc3C2=O)n1 [AJT-1, 2-{6-Ethoxy-4-[4-fluoro-2-(4-methyl-1,2,4-triazol-3-yl)phenyl]pyridin-2-yl}-6-({[(1-hydroxycyclobutyl)methyl] (methyl)amino}methyl)-3H-isoindol-1-one] | ≤ 200 | ≤ 200
7 | Cn1cnnc1-c1cc(C#N)ccc1-c1cc(C2CC2)nc(N2Cc3c(F)cc(CN4CC[C@@H]5COC[C@H]54)cc3C2=O)c1 [AOU-1, 4-(2-Cyclopropyl-6-(4-fluoro-6-(((3aS,6aS)-hexahydro-1H-furo[3,4-b]pyrrol-1-yl)methyl)-1-oxoisoindolin-2-yl)pyridin-4-yl)-3-(4-methyl-4H-1,2,4-triazol-3-yl)benzonitrile] | ≤ 200 | ≤ 200
8 | Cn1cnnc1-c1cc(C#N)ccc1-c1cc(C2CC2)nc(N2Cc3ccc(CNCC4(F)COC4)cc3C2=O)c1 [ANL-2, 4-{2-Cyclopropyl-6-[6-({[(3-fluorooxetan-3-yl)methyl]amino}methyl)-1-oxo-3H-isoindol-2-yl]pyridin-4-yl}-3-(4-methyl-1,2,4-triazol-3-yl)benzonitrile] | ≤ 200 | ≤ 200
9 | Cn1cnnc1-c1cc(C#N)ccc1-c1cc(C2CC2)nc(N2Cc3ccc(OC[C@@H](O)CO)cc3C2=O)c1 [AJM-3, (S)-4-(2-Cyclopropyl-6-(6-(2,3-dihydroxypropoxy)-1-oxoisoindolin-2-yl)pyridin-4-yl)-3-(4-methyl-4H-1,2,4-triazol-3-yl)benzonitrile] | ≤ 200 | ≤ 200
10 | Cn1cnnc1-c1cc(C#N)ccc1-c1cc(C2CC2)nc(N2Cc3ccc(CNCC(C)(C)F)cc3C2=O)c1 [ALD-2, 4-[2-Cyclopropyl-6-(6-{[(2-fluoro-2-methylpropyl)amino]methyl}-1-oxo-3H-isoindol-2-yl)pyridin-4-yl]-3-(4-methyl-1,2,4-triazol-3-yl)benzonitrile] | ≤ 200 | ≤ 200
